This note sets out measurements from patent US5079358A, “6H-pyrazolo-[4,5,1-d,e]acridin-6-one derivatives having anit-tumor activity” (Kyowa Hakko Kogyo Co., Ltd., priority 1988, dated 1992).

In brackets after ≈: the same amount, converted by molar mass. Where only a bound is given, the exact number is not on record here.

For one assay, the system named is P388 ascites tumor. Put plainly: Effect on P388 ascites tumor (increased life span). The assay is classed as in vivo. To be noted: P388, ip; dose 12.5 mg/kg, intraperitoneal, 24 hours after implantation, male CDF1 mouse. The method, then: Effect on P388 ascites tumor:
P388 tumor cells (10^6 cells) were implanted intraperitoneally into a DBA/2 mouse and the cells were collected from the ascitic fluid of the animal 7 days after the implantation. The cells were ashed once with sterilized physiological saline solution and then suspended in a sterilized physiological saline solution to prepare a cell suspension containing 5×10^6 cells/ml. The suspension (0.2 ml) was intraperitoneally inoculated into a male CDF1 mouse aged 6 weeks. A test compound was dissolved in physiological saline solution and intraperitoneally administered to the animal 24 hours after implantation of the tumor cells. One test group comprised 5 mice. The mean survival time (days) of a test group which received a test compound at a specified concentration was calculated as T from survival days of animals in the group. ON the other hand, the mean survival time (days) of the non-administered group (C) was obtained in the same manner, and the increased life span (ILS %) was calculated as [(T-C)/C]×100 (%).
What is called ILS is the gain in survival time of treated over control animals, in per cent. High values mean a large benefit in survival, low ones a small benefit in survival. With `CN(C)CCCNCc1nn2c3cccc(O)c3c(=O)c3c(NCCCN(C)C)ccc1c32` [Compound 70, 5-(3-Dimethylaminopropyl)amino-2-(3-dimethylaminopropyl)aminomethyl-7-hydroxy-6H-pyrazolo[4,5,1-d,e]acridin-6-one], the ILS at 12.5 mg/kg was greater than 112%. In the case of `O=c1c2c(O)cccc2n2nc(CNCCOCCO)c3ccc(NCCNCCO)c1c32` [Compound 66, 7-Hydroxy-5-[2-(2-hydroxyethylamino)ethyl]amino-2-[2-(2-hydroxyethyloxy)ethyl]aminomethyl-6H-pyrazolo[4,5,1-d,e]acridin-6-one], the ILS at 12.5 mg/kg is greater than 133%. In the case of `NCCNc1ccc2c(CNCCSCCO)nn3c4cccc(O)c4c(=O)c1c23` [Compound 59, 5-(2-Aminoethyl)amino-7-hydroxy-2-[2-(2-hydroxyethylthio)ethyl]aminomethyl-6H-pyrazolo[4,5,1-d,e]acridin-6-one], the ILS at 12.5 mg/kg was greater than 134%.

The same assay, now with this note: P388, ip; dose 25 mg/kg, intraperitoneal, 24 hours after implantation, male CDF1 mouse.
Regarding `COc1cccc2c1c(=O)c1c(NCCCN)ccc3c(CNCCCN)nn2c31` [Compound 26, 5-(3-Aminopropyl)amino-2-(3-aminopropyl)aminomethyl-7-methoxy-6H-pyrazolo[4,5,1-d,e]acridin-6-one], the ILS at 25 mg/kg came to 28%. On to `COc1cccc2c1c(=O)c1c(NCCN)ccc3c(CNCCN)nn2c31` [Compound 25, 5-(2-Aminoethyl)amino-2-(2-aminoethyl)aminomethyl-7-methoxy-6H-pyrazolo[4,5,1-d,e]acridin-6-one], for which the ILS at 25 mg/kg was 39%.

Still in this assay, the particulars now being: P388, ip; dose 37.5 mg/kg, intraperitoneal, 24 hours after implantation, male CDF1 mouse.
For the compound `NCCNCc1nn2c3ccccc3c(=O)c3c(NCCN)ccc1c32` [Compound 21, 5-(2-Aminoethyl)amino-2-(2-aminoethyl)aminomethyl-6H-pyrazolo[4,5,1-d,e]acridin-6-one], the ILS at 37.5 mg/kg was determined as 50%.

The assay is the same for the next values; noted with them: P388, ip; dose 50 mg/kg, intraperitoneal, 24 hours after implantation, male CDF1 mouse.
Compound `CN(C)CCNCc1nn2c3ccccc3c(=O)c3c(NCCN(C)C)ccc1c32` [Compound 23, 5-(2-Dimethylaminoethyl)amino-2-(2-dimethylaminoethyl)aminomethyl-6H-pyrazolo[4,5,1-d,e]acridin-6-one] gave an ILS at 50 mg/kg of 46%. Same read-out and setting: the value for `CN(C)CCNCc1nn2c3cccc(O)c3c(=O)c3c(NCCN(C)C)ccc1c32` [Compound 30, 5-(2-Dimethylaminoethyl)amino-2-(2-dimethylaminoethyl)aminomethyl-7-hydroxy-6H-pyrazolo[4,5,1-d,e]acridin-6-one] was 61%.

Still in this assay, the particulars now being: P388, ip; dose 75 mg/kg, intraperitoneal, 24 hours after implantation, male CDF1 mouse.
Consider `O=c1c2c(O)cccc2n2nc(CNCCO)c3ccc(Br)c1c32` [Compound 67, 5-Bromo-7-hydroxy-2-(2-hydroxyethyl)aminomethyl-6H-pyrazolo[4,5,1-d,e]acridin-6-one], for which the ILS at 75 mg/kg came to 31%.

Staying with this assay, now noted: P388, ip; dose 4-6 mg/kg, intraperitoneal, 24 hours after implantation, male CDF1 mouse.
`CO[C@@]12[C@H](COC(N)=O)C3=C(C(=O)C(C)=C(N)C3=O)N1C[C@@H]1N[C@@H]12` [Mitomycin C, reference compound]: the ILS at 4 mg/kg was 57 to 67%.

The assay is the same for the next values; noted with them: dose 18.8 mg/kg, intraperitoneal, 24 hours after implantation, male CDF1 mouse.
For `O=c1c2ccccc2n2nc(CN(CCCl)CCCl)c3cccc1c32` [Compound 9, 2-Bis(2-chloroethyl)aminomethyl-6H-pyrazolo[4,5,1-d,e]acridin-6-one], the “ILS (%)” value is 28%.

The subject of a further assay is human cancer cells (HeLaS3). Description: Inhibitory effect on growth of human cancer cells (HeLaS3). Format: cell-based. Conditions: 72 hours at 37° C., Neutral Red staining, 550 nm. The procedure:
Inhibitory effect on growth of human cancer cells (HeLaS3):
HeLaS, cells were suspended in a medium comprising MEM medium (Nissui Pharmaceutical Co., Ltd.) and 2 mM glutamine (hereinafter referred to as Medium A) to a concentration of 3×10^4 cells/ml. The cell suspension thus prepared was put into wells of a 96-well microtiter plate in an amount of 0.1 ml/well. The cells on the plate were incubated in a CO2 -incubater at 37° C. for 20 hours, and 0.05 ml of a sample containing a test compound and appropriately diluted with Medium A was added to each well. The cells were further incubated in the CO2 -incubater at 37° C. for 72 hours. After the culture supernatant was removed, a medium comprising Medium A and 0.02% Neutral Red was added to the residue in an amount of 0.1 ml/well, followed by incubation at 37° C. for one hour in the CO2 -incubater, whereby the cells were stained. The culture supernatant was removed and the residue was washed once with physiological saline solution. The pigment was extracted with 0.001 N-HCl/30%-ethanol, and the absorbance was determined at 550 nm with a microplate reader. The absorbance determined for intact cells was compared with that for the cells treated with the test compound of a known concentration, and the concentration of the test compound for inhibiting 50% growth of the cells (IC50) was calculated.
Broadly, the IC50 is the midpoint of a concentration-inhibition curve. For the compound `O=c1c2ccccc2n2nc(CN(CCCl)CCCl)c3cccc1c32` [Compound 9, 2-Bis(2-chloroethyl)aminomethyl-6H-pyrazolo[4,5,1-d,e]acridin-6-one], the IC50 turned out to be 0.92 mg/L (≈ 2.46 µM).

The assay is the same for the next values; noted with them: Homo sapiens, HeLa S3, 72 hours at 37° C., Neutral Red staining, 550 nm, read-out: IC50.
As for `COc1cccc2c1c(=O)c1c(NCCCN)ccc3c(CNCCCN)nn2c31` [Compound 26, 5-(3-Aminopropyl)amino-2-(3-aminopropyl)aminomethyl-7-methoxy-6H-pyrazolo[4,5,1-d,e]acridin-6-one], the IC50 was found to be 0.22 mg/L (≈ 0.539 µM). In the case of `Cc1nn2c3ccccc3c(=O)c3c(N)ccc1c32` [Compound 11, 5-Amino-2-methyl-6H-pyrazolo[4,5,1-d,e]acridin-6-one], the IC50 came to 2.16 mg/L (≈ 8.67 µM). The same measure, in the same setting: the value for `O=c1c2ccccc2n2nc(CNCCN3CCOCC3)c3ccc(NCCN4CCOCC4)c1c32` [Compound 35, 5-(2-Morpholinoethyl)amino-2-(2-morpholinoethyl)aminomethyl-6H-pyrazolo[4,5,1-d,e]acridin-6-one] was 3.37 mg/L (≈ 6.87 µM). Take `CN(C)CCNC(=O)c1nn2c3ccccc3c(=O)c3cccc1c32` [Compound 3, 2-(2-Dimethylaminoethyl)aminocarbonyl-6H-pyrazolo[4,5,1-d,e]acridin-6-one]: the IC50 turned out to be 2.5 mg/L (≈ 7.48 µM). Still for that read-out and setting: the result for `CN(C)CCNCc1nn2c3cccc(O)c3c(=O)c3c(NCCNCCO)ccc1c32` [Compound 42] reads 0.12 mg/L (≈ 0.274 µM). On the same count and under the same terms, the result for `Nc1ccc2c(CNCCNCCO)nn3c4ccccc4c(=O)c1c23` [Compound 16, 5-Amino-2-[2-(2-hydroxyethylamino)ethyl]aminomethyl-6H-[4,5,1-d,e]acridin-6-one] reads 0.87 mg/L (≈ 2.48 µM); that for `CNCCNc1ccc2c(CN(C)CCN)nn3c4ccccc4c(=O)c1c23` [Compound 38, 2-[N-(2-aminoethyl)-N-methyl]aminomethyl-5-(2-methylaminoethyl)amino-6H-pyrazolo[4,5,1-d,e]acridin-6-one], 2.89 mg/L (≈ 7.64 µM). For the compound `CN(C)CCCNCc1nn2c3ccccc3c(=O)c3c(NCCCN(C)C)ccc1c32` [Compound 39, 5-(3-Dimethylaminopropyl)amino-2-(3-dimethylaminopropyl)aminomethyl-6H-pyrazolo[4,5,1-d,e]acridin-6-one], the IC50 was determined as 8.33 mg/L (≈ 19.2 µM).

With `CNCCCNCc1nn2c3ccccc3c(=O)c3c(NCCCNC)ccc1c32` [Compound 32, 5-(3-Methylaminopropyl)amino-2-(3-methylaminopropyl)aminomethyl-6H-pyrazolo[4,5,1-d,e]acridin-6-one], the IC50 came out at 1.16 mg/L (≈ 2.85 µM). Consider `CCN(CC)CCNCc1nn2c3ccccc3c(=O)c3c(NCCN(CC)CC)ccc1c32` [Compound 36, 5-(2-Diethylaminoethyl)amino-2-(2-diethylaminoethyl)aminomethyl-6H-pyrazolo[4,5,1-d,e]acridin-6-one], for which the IC50 turned out to be 3.1 mg/L (≈ 6.7 µM). On the same count and under the same terms, the value for `CCNCCNCc1nn2c3ccccc3c(=O)c3c(NCCNCC)ccc1c32` [Compound 34, 5-(2-Ethylaminoethyl)amino-2-(2-ethylaminoethyl)aminomethyl-6H-pyrazolo[4,5,1-d,e]acridin-6-one] was 1.72 mg/L (≈ 4.23 µM). Take `Nc1ccc2c(CNCCN3CCOCC3)nn3c4ccccc4c(=O)c1c23` [Compound 17, 5-Amino-2-(2-morpholinoethyl)aminomethyl-6H-[4,5,1-d,e]-acridin-6-one]: the IC50 worked out at 1.96 mg/L (≈ 5.19 µM).

Take `O=c1c2ccccc2n2nc(CNCCN3CCOCC3)c3cccc1c32` [Compound 8, 2-(2-Morpholinoethyl)aminomethyl-6H-pyrazolo[4,5,1-d,e]acridin-6-one]: the half-inhibitory concentration (IC50) stood at 4.9 mg/L (≈ 13.5 µM). Same read-out and setting: the value for `O=c1c2ccccc2n2nc(CN(CCO)CCO)c3cccc1c32` [Compound 7, 2-Bis(2-hydroxyethyl)aminomethyl-6H-pyrazolo[4,5,1-d,e]acridin-6-one] was 8.89 mg/L (≈ 26.4 µM); that for `NCCNc1ccc2c(CNCCOCCO)nn3c4cccc(O)c4c(=O)c1c23` [Compound 62, 5-(2-Aminoethyl)amino-7-hydroxy-2-[2-(2-hydroxyethyloxy)ethyl]aminomethyl-6H-pyrazolo[4,5,1-d,e]acridin-6-one] was 0.0023 mg/L (≈ 0.00559 µM). Turning to `COc1cccc2c1c(=O)c1cccc3c(C(=O)NCCN(C)C)nn2c31` [Compound 4, 7-Methoxy-2-(2-dimethylaminoethyl)aminocarbonyl-6H-pyrazolo[4,5,1-d,e]acridin-6-one], the IC50 is 2.98 mg/L (≈ 8.18 µM). Still for that read-out and setting: the result for `CNCCNCc1nn2c3ccccc3c(=O)c3c(NCCNC)ccc1c32` [Compound 33, 5-(2-Methylaminoethyl)amino-2-(2-methylaminoethyl)aminomethyl-6H-pyrazolo[4,5,1-d,e]acridin-6-one] reads 2.69 mg/L (≈ 7.11 µM); that for `NCCNCc1nn2c3ccccc3c(=O)c3c(N)ccc1c32` [Compound 15, 5-Amino-2-(2-aminoethyl]aminomethyl-6H-pyrazolo[4,5,1-d,e]acridin-6-one], 0.71 mg/L (≈ 2.31 µM). Same read-out and setting: the value for `COc1cccc2c1C(=O)c1c(O)c3c(c(O)c1C2=O)C[C@@](O)(C(=O)CO)C[C@@H]3O[C@H]1C[C@H](N)[C@H](O)[C@H](C)O1` [Adriamycin, reference compound] was 0.009 to 0.05 mg/L (≈ 0.0166 to 0.092 µM); that for `NCCCCNCc1nn2c3ccccc3c(=O)c3c(NCCCCN)ccc1c32` [Compound 37, 5-(4-Aminobutyl)amino-2-(4-aminobutyl)aminomethyl-6H-pyrazolo[4,5,1-d,e]acridin-6-one] was 2.11 mg/L (≈ 5.19 µM); that for `O=C(NCCN1CCOCC1)c1nn2c3ccccc3c(=O)c3cccc1c32` [Compound 5, 2-(2-Morpholinoethyl)aminocarbonyl-6H-pyrazolo[4,5,1-d,e]acridin-6-one] was 7.2 mg/L (≈ 19.1 µM).
